Test results published in US5256686A, “Phenylalkan(en)oic acid” (Ono Pharmaceutical Co., Ltd., priority 1989, dated 1993).

Experiments:
[1] = target: T1, human PMNL LTB4 receptor (Homo sapiens, UniProt Q15722); test: Binding affinity of 3H-LTB4 antagonist to human PMNL LTB4 receptor (inhibition of specific 3H-LTB4 binding); conditions: 1 nM 3H-LTB4, human PMNLs, 4° C., 20 min
T1 construct: endogenous in cells; host or cells: human polymorphonuclear leukocytes (PMNL), intact cells
Description: Human PMNLS (1×10^7 cells) were incubated with 1 nM ^3 H-LTB4 in Hanks balanced salt solution (1 ml) at 4° C. for 20 min. in the presence or absence of increasing concentrations of unlabeled LTB4 or various compounds. Free ^3 H-LTB4 was separated from PMNLs-bound ligands by vacuum filteration through Whatman GF/B or C glass fiber filters. The filters were then washed rapidly 4 times with 2.5 ml of the ice-cold phosphate buffered saline. The radioactivity retained in the filter was determined by liquid scintillation counting. Specific binding was defined as the difference between total binding and binding in the presence of 3 μM LTB4 (nonspecific binding). The inhibitory effect of specific ^3 H-LTB4 binding was calculated from the following equation.
The percentage of inhibition (%)=100-(B1 /B0 ×100)
B1 : specific ^3 H-LTB4 binding in presence of antagonist
B0 : specific ^3 H-LTB4 binding in absence of antagonist

[2] = tested on: Human PMNLs; test: Inhibition of human PMNLs aggregation (LTB4-induced); type: cell-based; conditions: PMNL, LTB4 10^-8 M solution, 3 min preincubation at 37° C., pH 7.4
Description: ii) Inhibition of Human PMNLs aggregation
The purified human PMNLs were suspended in Hank's-0.5% BSA medium (pH 7.4) at 1×10^7 cells/ml. The PMNLs suspentions (200 μl) were preincubated with varying concentrations of tasted compounds for 3 min at 37° C. prior to the addition of 10^-8 M solution ([…]) of LTB4 in Hank's solution. PMNLs aggregation in vitro was performed with a multichannel platelet aggregometer. Aggregation was detected as change in light transmission with an aggregometer.

T1 sequence (Q15722 whole entry): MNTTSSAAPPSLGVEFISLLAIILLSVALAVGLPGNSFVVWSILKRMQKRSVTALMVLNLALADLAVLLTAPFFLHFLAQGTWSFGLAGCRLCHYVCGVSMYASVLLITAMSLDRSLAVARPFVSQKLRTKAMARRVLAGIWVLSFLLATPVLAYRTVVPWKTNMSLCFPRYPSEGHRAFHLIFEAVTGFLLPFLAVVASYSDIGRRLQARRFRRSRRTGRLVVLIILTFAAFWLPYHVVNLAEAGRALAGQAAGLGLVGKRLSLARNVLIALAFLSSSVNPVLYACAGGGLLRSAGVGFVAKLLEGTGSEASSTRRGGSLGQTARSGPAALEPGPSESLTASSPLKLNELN

IC50 [1] | IC50 [2] | Compound
45 nM | 3600 nM | COc1ccc(/C=C/CCCCOc2ccc(NC(=O)CCCC(=O)N(C)C)cc2CCC(=O)O)cc1 [1 (a), 3-[1-[6-(4-methoxyphenyl)hex-5E-enyl]oxy-4-(4-dimethylaminocarbonylbutanamido)benzen-2-yl]propionic acid]
20 nM | 3000 nM | COc1ccc(/C=C/CCCCOc2ccc(NC(=O)CCCC(=O)Nc3nccs3)cc2CCC(=O)O)cc1 [1 (o), 3-[1-[6-(4-methoxyphenyl)hex-5E-enyl]oxy-4-[4-(2-thiazolyl)aminocarbonylbutanamido]benzen-2-yl]propionic acid]
20 nM | 7400 nM | COc1ccc(/C=C/CCCCOc2ccc(NC(=O)c3cccc(C(=O)O)c3)cc2CCC(=O)O)cc1 [2 (b), 3-[1-[6-(4-methoxyphenyl)hex-5E-enyl]oxy-4-(3-carboxylbenzamido)benzen-2-yl]propionic acid]
45 nM |  | CCCCCCCCC(O)/C=C/CCCCOc1ccc(N2C(=O)CCCS2(=O)=O)cc1CCC(=O)O (stereo not drawn) [Example 13, 3-[1-(5E-7-hydroxy-n-pentadecenyl)oxy-4-(perhydro-1,2-thiazin-1,1,3-trione-2-yl)benzen-2-yl]propionic acid]
25 nM |  | COc1ccc(/C=C/CCCCOc2ccc(CCCCC(=O)N(C)C)cc2CCC(=O)O)cc1 [Example 18, 3-[1-[6-(4-methoxyphenyl)hex-5E-enyl]oxy-4-(4-dimethylaminocarbonylbutyl)benzen-2-yl]propionic acid]
30 nM |  | COc1ccc(/C=C/CCCCOc2ccc(C(=O)CCCC(=O)N(C)C)cc2CCC(=O)O)cc1 [Example 19, 3-[1-[6-(4-methoxyphenyl)hex-5E-enyl]oxy-4-(1-oxo-4-dimethylaminocarbonylbutyl)benzen-2-yl]propionic acid]
18 nM |  | CCCCCCCCC(O)/C=C/CCCCOc1cccc(OCCCCC(=O)N(C)C)c1CCC(=O)O (stereo not drawn) [Example 29, 3-[1-(5E-7-hydroxypentadecenyl)oxy-3-(4-dimethylaminocarbonylbutyl)oxybenzen-2-yl]propionic acid]
15 nM |  | COc1ccc(/C=C/CCCCOc2cccc(CCCCCC(=O)O)c2CCC(=O)O)cc1 [Example 33, 3-[1-[6-(4-methoxyphenyl)hex-5E-enyl]oxy-3-(5-carboxylpentyl)benzen-2-yl]propionic acid]
200 nM |  | COc1ccc(/C=C/CCCCOc2cccc(N(S(C)(=O)=O)S(C)(=O)=O)c2CCC(=O)O)cc1 [Example 35, 3-[1-[6-(4-methoxyphenyl)hex-5E-enyl]oxy-3-dimesylaminobenzen-2-yl]propionic acid]
150 nM |  | COc1ccc(/C=C/CCCCOc2cccc(N3C(=O)CCCS3(=O)=O)c2CCC(=O)O)cc1 [Example 36, 3-[1-[6-(4-methoxyphenyl)hex-5E-enyl]oxy-3-(perhydro-1,2-thiazin-1,1,3-trione-2-yl)benzen-2-yl]propionic acid]
23 nM |  | COc1ccc(/C=C/CCCCOc2cccc(C(=O)CCCCC(=O)N(C)C)c2CCC(=O)O)cc1 [Example 39, 3-[1-[6-(4-methoxyphenyl)hex-5E-enyl]oxy-3-(1-oxo-5-dimethylaminocarbonylpentyl)benzen-2-yl]propionic acid]
170 nM |  | COc1ccc(/C=C/CCCCOc2cccc(C(O)CCCCC(=O)N(C)C)c2CCC(=O)O)cc1 (stereo not drawn) [Example 40, 3-[1-[6-(4-methoxyphenyl)hex-5E-enyl]oxy-3-(1-hydroxy-5-dimethylaminocarbonylpentyl)benzen-2-yl]propionic acid]

Compound | IC50 [1] | IC50 [2]
COc1ccc(/C=C/CCCCOc2cccc(OCCCCN3CCCC3=O)c2CCC(=O)O)cc1 [30 (a), 3-[1-[6-(4-methoxyphenyl)hex-5E-enyl]oxy-3-[4-(2-pyrrolidon-1-yl)-n-butoxy]benzen-2-yl]propionic acid] | 70 nM | 1100 nM
COc1ccc(/C=C/CCCCOc2ccc(OCCCCC(=O)O)cc2CCC(=O)O)cc1 [Example 14, 3-[1-[6-(4-methoxyphenyl)hex-5E-enyl]oxy-4-(4-carboxylbutoxy)benzen-2-yl]propionic acid] | 70 nM | 
